In ChEMBL document CHEMBL6078659, “Comprehensive Insights into the Development of Antitoxoplasmosis Drugs: Current Advances, Obstacles, and Future Perspectives” (J Med Chem, 2024):
pIC50: −log10 of the molar value. Converted amounts (≈) assume the structure as drawn.

System: not listed separately
Experiment: Cytotoxicity against African green monkey Vero cells assessed as reduction in cell viability by MTT assay
Format: toxicity, cell-based
Settings: African green monkey (Chlorocebus sabaeus)

Question: With `C=CCSSCC=C` [DIALLYLDISULFIDE] as the compound, how does the IC50 read?
Answer: The IC50 was 66.9 µg/mL (≈ 457 µM).

Question: With `COC(=O)/C=C(\C)CCC=C(C)C` as the compound, how does the IC50 read?
Answer: The IC50 was 9 µg/mL (≈ 49.4 µM).

Question: Which IC50 does the source give for `CC1=CC[C@H]2[C@H]3[C@@H]1[C@]2(C)CC[C@H]3C(C)C` here?
Answer: Its IC50 is 9.94 µg/mL (≈ 48.6 µM).

Question: For `C=CCSSSCC=C` [ALLITRIDIN], which IC50 is on record?
Answer: The IC50 was 28 µg/mL (≈ 157 µM).

Question: For `C=CCSSSC`, which IC50 is on record?
Answer: The IC50 was 66 µg/mL (≈ 433 µM).

Question: Which IC50 does the source give for `CC(C)=CCC/C(C)=C/C=O` [CITRAL] here?
Answer: The IC50 was 9 µg/mL (≈ 59.1 µM).

System: Toxoplasma gondii
Experiment: Antiparasitic activity against Toxoplasma gondii
Format: functional, organism-based
Settings: not given

Question: With `NC(=S)N/N=C(/COc1ccc(F)cc1)c1ccc(Cl)cc1` as the compound, how does the pIC50 read?
Answer: Its pIC50 is 5.92.

Question: With `COc1ccc(/C(COc2ccc(F)cc2)=N\NC(N)=S)cc1` as the compound, how does the pIC50 read?
Answer: The pIC50 was 5.96.

Target: T1, Bifunctional dihydrofolate reductase-thymidylate synthase (Toxoplasma gondii, UniProt Q07422)
T1 sequence (Q07422 whole entry): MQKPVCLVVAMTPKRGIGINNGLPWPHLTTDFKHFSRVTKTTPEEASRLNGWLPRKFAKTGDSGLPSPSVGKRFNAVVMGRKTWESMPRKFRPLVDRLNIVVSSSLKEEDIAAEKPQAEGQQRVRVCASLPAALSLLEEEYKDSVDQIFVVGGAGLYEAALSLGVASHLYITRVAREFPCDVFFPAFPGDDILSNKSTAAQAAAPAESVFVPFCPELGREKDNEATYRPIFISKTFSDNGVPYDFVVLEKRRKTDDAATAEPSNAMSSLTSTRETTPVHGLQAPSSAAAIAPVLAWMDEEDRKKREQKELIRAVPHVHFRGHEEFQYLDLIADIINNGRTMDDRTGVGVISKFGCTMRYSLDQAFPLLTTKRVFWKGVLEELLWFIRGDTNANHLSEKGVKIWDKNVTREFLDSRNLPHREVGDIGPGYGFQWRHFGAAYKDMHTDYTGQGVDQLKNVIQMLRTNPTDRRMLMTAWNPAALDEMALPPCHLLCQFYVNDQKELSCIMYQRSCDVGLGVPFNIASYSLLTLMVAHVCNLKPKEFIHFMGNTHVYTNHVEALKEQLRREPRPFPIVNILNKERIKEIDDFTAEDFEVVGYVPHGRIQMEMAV
Experiment: Inhibition of Toxoplasma gondii thymidylate synthase
Settings: not given

Question: With `C[C@H]1[C@H](N2CCSCC2)O[C@@H]2O[C@@]3(C)CC[C@H]4[C@H](C)CC[C@@H]1[C@@]24OO3` [ARTEMISIDE] as the compound, how does the pIC50 read?
Answer: Its pIC50 is 7.00.

Question: With `C[C@H]1[C@H](N2CCS(=O)(=O)CC2)O[C@@H]2O[C@@]3(C)CC[C@H]4[C@H](C)CC[C@@H]1[C@@]24OO3` [ARTEMIFONE] as the compound, how does the pIC50 read?
Answer: The pIC50 was 6.92.

Question: With `C[C@H](NC(=O)OC(C)(C)C)C(=O)OC1O[C@@H]2O[C@@]3(C)CC[C@H]4[C@H](C)CC[C@@H]([C@H]1C)[C@@]24OO3` (some centres undefined) as the compound, how does the pIC50 read?
Answer: Its pIC50 is 4.39.

System: not listed separately
Experiment: Inhibition of Toxoplasma gondii Farnesyl pyrophosphate synthase
Settings: not given

Question: With `CCCCCCCCCCS(=O)(=O)CC(P(=O)(O)O)P(=O)(O)O` as the compound, how does the pIC50 read?
Answer: Its pIC50 is 6.96.

Question: With `O=C(CCCCSc1nc(-c2ccc(-c3ccccc3)cc2)cc(=O)[nH]1)NO` as the compound, how does the pIC50 read?
Answer: The pIC50 was 7.47.

Question: With `COc1cccc(CC(=O)Nc2ccc(C(=O)NO)cc2)c1` as the compound, how does the pIC50 read?
Answer: The pIC50 was 6.25.

Question: With `CCCCCCNCC(O)(P(=O)(O)O)P(=O)(O)O` as the compound, how does the pIC50 read?
Answer: The pIC50 was 5.33.

Question: With `CC[C@]1(C)NC(=O)[C@H](CCCCCC(=O)[C@@H](C)OC(=O)Oc2ccccc2)NC(=O)[C@H]2C[C@H](C)CN2C(=O)[C@H](Cc2ccccc2)NC1=O` as the compound, how does the pIC50 read?
Answer: The pIC50 was 7.95.

Question: With `CC[C@]1(C)NC(=O)[C@H](CCCCCC(=O)[C@@H](C)OC(C)=O)NC(=O)[C@H]2C[C@H](C)CN2C(=O)[C@H](Cc2ccccc2)NC1=O` as the compound, how does the pIC50 read?
Answer: Its pIC50 is 7.99.

System: Toxoplasma gondii
Experiment: Antiparasitic activity against Toxoplasma gondii RH infected in human HFF cells assessed as reduction in parasitic growth
Format: functional, organism-based
Settings: not given

Question: With `N=C(N)N/N=C/c1c(Cl)cccc1Cl` [GUANABENZ] as the compound, how does the pIC50 read?
Answer: The pIC50 was 5.22.

Question: With `Cn1cc(-c2ccc3c(c2)CCN3C(=O)Cc2cccc(C(F)(F)F)c2)c2c(N)ncnc21` as the compound, how does the pIC50 read?
Answer: The pIC50 was > 6.00.

System: Toxoplasma gondii
Experiment: Antiparasitic activity against Toxoplasma gondii RH infected in human HFF cells
Format: functional, organism-based
Settings: not given

Question: For `Fc1ccc(-c2csc(N/N=C/C3CC3)n2)cc1`, which IC50 is on record?
Answer: Its IC50 is 18.1 µg/mL (≈ 69.2 µM).

System: not listed separately
Experiment: Cytotoxicity against African green monkey Vero cells by MTT assay
Format: toxicity, cell-based
Settings: African green monkey (Chlorocebus sabaeus)

Question: Which IC50 does the source give for `C/C(=N\Nc1nc(-c2ccc(Cl)c(Cl)c2)cs1)c1ccc(Nc2nc(N)nc(N)n2)cc1` here?
Answer: Its IC50 is 14.9 µg/mL.

Question: With `NC(=S)N/N=C(/COc1ccc(F)cc1)c1ccc(Cl)cc1` as the compound, how does the pIC50 read?
Answer: Its pIC50 is 5.92.

Question: With `Fc1ccc(-c2csc(N/N=C/C3CC3)n2)cc1` as the compound, how does the IC50 read?
Answer: The IC50 was 18 µg/mL.

Question: With `COc1ccc(/C(COc2ccc(F)cc2)=N\NC(N)=S)cc1` as the compound, how does the pIC50 read?
Answer: The pIC50 was 5.96.
